≈ marks a conversion by molar mass, not a printed value.
Key:
S. aureus ATCC29213 = assay: Human serum binding effect: MIC with and without human serum; format: cell-based, Staphylococcus aureus; settings: 1:1 human serum:MHB
Protocol: The approximate measurement of the degree of binding of the compound to human serum proteins can be achieved by determination of the effect of the addition of human serum to the medium in which the MIC values against a selected bacterial strain is determined. The ratio of the MIC value obtained in presence of added human serum to the MIC value determined without serum addition was used as a measure of serum binding and the results of such determination are presented below in Table 2.
In addition to the standard MIC determination described above, the staphylococcal strain ATCC29213 is also tested in a ratio 1:1, human serum:MHB to obtain a preliminary estimate of the bioactivity of test compounds in serum: The assay was performed in Human Serum and Mueller-Hinton Broth (HSMHB) with a final bacterial inoculum of 1×10^6 CFU/mL (from an early-log phase culture) and a final volume of 100 μL. Control drugs, including imipenem, vancomycin, dicloxacillin, and new compounds were prepared in double-concentrated Mueller-Hinton broth at a concentration equivalent to 4-fold the desired final concentration. Dilution of compounds were prepared directly in the plates by serial 2-fold dilution in double-concentrated Mueller-Hinton using a multichannel pipette. Positive and negative growth controls were included in each plate. […] The inoculum was prepared by diluting the early log-phase (1 h) culture 1:100 with fresh double-concentrated Mueller-Hinton broth. A volume of 25 μL of the inoculum was added to each well. […] The exact inoculum was determined by applying 10 μl of 10-fold serial dilution of the bacterial suspension on TSA. After overnight incubation at 35° C., colony forming units were manually counted.

[1] = system: S. aureus Col (Meth^R)(lac^−); assay: Broth microdilution MIC (NCCLS); format: cell-based; settings: Staphylococcus aureus
Protocol: (§1) Compounds were evaluated for antimicrobial activity against a panel of bacterial strains using a broth microdilution assay performed as recommended by the NCCLS (1). The minimum inhibitory concentration (MIC) was defined as the lowest concentration of drug which prevented the growth of the bacteria.
(§2) For this primary panel, the assay was performed in Mueller-Hinton Broth (MHB) with a final bacterial inoculum of 5×10^5 CFU/mL (from an early-log phase culture) and a final volume of 100 μL. Control drugs, including imipenem, vancomycin, Penicillin G, dicloxacillin (vs. MSSA ATCC29213 only), and new compounds were prepared at a concentration equivalent to 2-fold the desired final concentration. Dilution of compounds were prepared directly in the plates by serial 2-fold dilution using a multichannel pipette. Positive and negative growth control were included in each plate.
(§3) The bacterial inocula were prepared as follows. For each strain one isolated colony was used to inoculate a volume of 8 mL of Mueller-Hinton broth and these cultures were incubated overnight (20 h) at 35° C. in a shaking incubator. At the exception of Enterococcus strains, culture were then diluted 1:10 and allowed to grow for an additional one hour at 35° C. in a shaking incubator. The inocula were prepared by diluting the early log-phase (1 h) cultures 1:1000 with fresh Mueller-Hinton broth. E. faecium and E. faecalis were prepared by diluting overnight cultures 1:333 and 1:666, respectively, with fresh Mueller-Hinton broth. A volume of 50 μL of the inocula was added to each well. […] The exact inocula were determined by applying 10 μL of 10-fold serial dilution of the bacterial suspensions on TSA. After overnight incubation at 35° C., colony forming units were manually counted.
(§4) Microtiter plates were incubated during 24 h at 35° C. and were read using a microtiterplate reader (Molecular Devices) at 650 nm as well as by visual observation using a microtiterplate reading mirror.

[2] = system: S. aureus 76 (Meth^R)(lac^+); assay: Broth microdilution MIC (NCCLS); format: cell-based; settings: Staphylococcus aureus
Protocol: as §1, §2, §3, §4

[3] = system: S. aureus PC1 (Meth^S)(lac^+); assay: Broth microdilution MIC (NCCLS); format: cell-based; settings: Staphylococcus aureus
Protocol: as §1, §2, §3, §4

[4] = system: S. aureus ATCC 13709 (Meth^S); assay: Broth microdilution MIC (NCCLS); format: cell-based; settings: Staphylococcus aureus, ATCC13709, S. aureus ATCC 13709 (Meth^S); read-out: MIC
Protocol: as §1, §2, §3, §4

E. faecium ATCC 35667 = assay: Broth microdilution MIC (NCCLS); format: cell-based; settings: Enterococcus faecium, ATCC35667
Protocol: as §1, §2, §3, §4

E. faecalis ATCC 29212 = assay: Broth microdilution MIC (NCCLS); format: cell-based; settings: Enterococcus faecalis, ATCC29212
Protocol: as §1, §2, §3, §4

[5] = system: S. aureus Spain #356 (Meth^R); assay: Broth microdilution MIC (NCCLS); format: cell-based; settings: Staphylococcus aureus, 24 h
Protocol: as §1, §2, §3, §4

S. aureus ATCC 29213 = assay: Broth microdilution MIC (NCCLS); format: cell-based; settings: Staphylococcus aureus, ATCC29213; S. aureus ATCC 29213; Mueller-Hinton broth, 24 h at 35° C.; read-out: MIC
Protocol: as §1, §2, §3, §4

E. faecium A491 (Amp^R) = assay: Broth microdilution MIC (NCCLS); format: cell-based; settings: Enterococcus faecium
Protocol: as §1, §2, §3, §4

P. aeruginosa ATCC 27853 = assay: Broth microdilution MIC (NCCLS); format: cell-based; settings: Pseudomonas aeruginosa, ATCC27853
Protocol: as §1, §2, §3, §4

E. coli ATCC25992 = assay: Broth microdilution MIC (NCCLS); format: cell-based; settings: Escherichia coli
Protocol: as §1, §2, §3, §4

E. faecalis VanB (Van^R) = assay: Broth microdilution MIC (NCCLS); format: cell-based; settings: Enterococcus faecalis
Protocol: as §1, §2, §3, §4

[6] = system: S. aureus ATCC 33593 (Meth^R); assay: Broth microdilution MIC (NCCLS); format: cell-based; settings: Staphylococcus aureus, ATCC33593
Protocol: as §1, §2, §3, §4

[7] = system: S. haemolyticus 05 (Meth^R); assay: Broth microdilution MIC (NCCLS); format: cell-based; settings: Staphylococcus haemolyticus
Protocol: as §1, §2, §3, §4

E. faecium VanA (Van^R) = assay: Broth microdilution MIC (NCCLS); format: cell-based; settings: Enterococcus faecium
Protocol: as §1, §2, §3, §4

Row | Compound | Human serum binding effect (ratio of MIC value determined with and without human serum added) (S. aureus ATCC29213) | MIC [1] [µg/mL] | MIC [2] [µg/mL] | MIC [3] [µg/mL] | MIC [4] [µg/mL] | MIC (E. faecium ATCC 35667) [µg/mL] | MIC (E. faecalis ATCC 29212) [µg/mL] | MIC [5] [µg/mL] | MIC (S. aureus ATCC 29213) [µg/mL] | MIC (E. faecium A491 (Amp^R)) [µg/mL] | MIC (P. aeruginosa ATCC 27853) [µg/mL] | MIC (E. coli ATCC25992) [µg/mL] | MIC (E. faecalis VanB (Van^R)) [µg/mL] | MIC [6] [µg/mL] | MIC [7] [µg/mL] | MIC (E. faecium VanA (Van^R)) [µg/mL]
1 | NCCSc1cncc(SC2=C(C(=O)O)N3C(=O)C(NC(=O)/C(=N\O)c4cccc(N)n4)C3SC2)n1 (stereo not shown) [Cmpd 6] | 128 | 16 (≈ 29.2 µM) | 16 (≈ 29.2 µM) | 0.5 (≈ 0.911 µM) | 0.25 (≈ 0.456 µM) | 8 (≈ 14.6 µM) | 2 (≈ 3.65 µM) | 16 (≈ 29.2 µM) | 0.5 (≈ 0.911 µM) | > 32 | > 32 | 16 (≈ 29.2 µM) | 4 (≈ 7.29 µM) | 8 (≈ 14.6 µM) | 32 (≈ 58.3 µM) | 8 (≈ 14.6 µM)
2 | N=C(N)NCCSCc1nc(N)sc1SC1=C(C(=O)O)N2C(=O)[C@@H](NC(=O)/C(=N\O)c3nc(N)sc3Cl)[C@H]2SC1 [Cmpd 26, (7R)-7-[(Z)-2-(2-amino-5-chlorothiazol-4-yl)-2-(hydroxyimino)acetamido]-3-[4-(2-guanidinoethylthiomethyl)-2-amino-1,3-thiazol-5-ylthio]-3-cephem-4-carboxylic acid] | 2 | 0.25 (≈ 0.376 µM) | 0.5 (≈ 0.752 µM) | 0.06 (≈ 0.0902 µM) | 0.06 (≈ 0.0902 µM) | 0.5 (≈ 0.752 µM) | 0.06 (≈ 0.0902 µM) | 0.5 (≈ 0.752 µM) | 0.06 (≈ 0.0902 µM) | 16 (≈ 24.1 µM) | 4 (≈ 6.01 µM) | 4 (≈ 6.01 µM) | 0.06 (≈ 0.0902 µM) | 0.5 (≈ 0.752 µM) | 0.5 (≈ 0.752 µM) | 1 (≈ 1.5 µM)
3 | NCCSc1nccnc1SC1=C(C(=O)O)N2C(=O)C(NC(=O)/C(=N\O)c3cccc(N)n3)C2SC1 (stereo not shown) [Cmpd 7] |  | 2 (≈ 3.65 µM) | 2 (≈ 3.65 µM) | 0.25 (≈ 0.456 µM) | 0.25 (≈ 0.456 µM) | 8 (≈ 14.6 µM) | 2 (≈ 3.65 µM) | 2 (≈ 3.65 µM) | 0.25 (≈ 0.456 µM) | > 32 | > 32 | 4 (≈ 7.29 µM) | 4 (≈ 7.29 µM) | 2 (≈ 3.65 µM) | 2 (≈ 3.65 µM) | 8 (≈ 14.6 µM)
4 | COc1nc(CSCCN)c(SC2=C(C(=O)O)N3C(=O)[C@@H](NC(=O)/C(=N\O)c4cccc(N)n4)[C@H]3SC2)s1 [Cmpd 5, (7R)-7-[(Z)-2-(2-aminopyrid-6-yl)-2-(hydroxyimino)acetamido]-3-[4-(2-aminoethylthiomethyl)-2-methoxy-1,3-thiazol-5-ylthio]-3-cephem-4-carboxylic acid] | 4 | 4 (≈ 6.69 µM) | 4 (≈ 6.69 µM) | 0.25 (≈ 0.418 µM) | 0.13 (≈ 0.217 µM) | 4 (≈ 6.69 µM) | 0.5 (≈ 0.837 µM) | 4 (≈ 6.69 µM) | 0.25 (≈ 0.418 µM) | > 32 | > 32 | 32 (≈ 53.5 µM) | 1 (≈ 1.67 µM) | 4 (≈ 6.69 µM) | 8 (≈ 13.4 µM) | 4 (≈ 6.69 µM)
5 | NCCSc1nccc(SC2=C(C(=O)O)N3C(=O)[C@@H](NC(=O)/C(=N\O)c4cccc(N)n4)[C@H]3SC2)n1 [Cmpd 8, (7R)-7-[(Z)-2-(2-aminopyrid-6-yl)-2-(hydroxyimino)acetamido]-3-[2-(2-aminoethylthio)-pyrimidin-4-ylthio]-3-cephem-4-carboxylic acid] | 128 | 16 (≈ 29.2 µM) | 16 (≈ 29.2 µM) | 1 (≈ 1.82 µM) | 0.5 (≈ 0.911 µM) | 16 (≈ 29.2 µM) | 8 (≈ 14.6 µM) | 16 (≈ 29.2 µM) | 1 (≈ 1.82 µM) | > 32 | > 32 | 16 (≈ 29.2 µM) | 16 (≈ 29.2 µM) | 8 (≈ 14.6 µM) | 32 (≈ 58.3 µM) | 32 (≈ 58.3 µM)

Reference: patent publication US6723716B1, “7-acylamino-3-heteroarylthio-3-cephem carboxylic acid antibiotics and prodrugs thereof” (Essential Therapeutics, Inc., priority 1999, dated 2004)
